Where two headings read alike, the source gives them in different places.
Columns and labels:
B16 melanoma = test: MTT proliferation inhibition, B16; format: cell-based; settings: B16, read-out: Proliferation inhibition rate, B16 Melanoma
Text: (§1) 1. Cytotoxicity Assay Using Human Tumor Cell Lines
(§2) Paclitaxel was used as the positive drug.

[1] = Caco-2 cell monolayer membrane transport assay (Papp and recovery); format: in vitro ADME; settings: human, Caco-2, Caco-2, A-B
Description: Caco-2 Cell Monolayer Membrane Transport Assay
(§3) Human-derived colorectal adenocarcinoma cell line Caco-2 cell monolayer model was used to study the bidirectional transport of the target compounds from the apical (AP) side to the basolateral (BL) side and from BL side to AP side. HPLC was used for quantitative analysis to calculate transport parameters, apparent permeability coefficient (Papp) and the efflux ratio.

[2] = test system: MCF-7 breast cancer cells; test: MTT proliferation inhibition, MCF-7; format: cell-based; settings: Homo sapiens, MCF7, read-out: Proliferation inhibition rate, MCF-7 Breast cancer
Text: as §1, §2

HT-29 colon cancer = test: MTT proliferation inhibition, HT-29; format: cell-based; settings: Homo sapiens, HT-29, read-out: Proliferation inhibition rate, HT29 Colon cancer
Text: as §1, §2

HL-60 leukemia = test: MTT proliferation inhibition, HL-60; format: cell-based; settings: Homo sapiens, HL-60, read-out: Proliferation inhibition rate, HL60 Leukemia
Text: as §1, §2

A375 melanoma = test: MTT proliferation inhibition, A375; format: cell-based; settings: Homo sapiens, A-375, read-out: Proliferation inhibition rate, A375 Melanoma
Text: as §1, §2

BGC-823 gastric cancer = test: MTT proliferation inhibition, BGC-823; format: cell-based; settings: Homo sapiens, BGC-823, read-out: Proliferation inhibition rate, BGC-823 Gastric cancer
Text: as §1, §2

[3] = test system: A549 non-small cell lung cancer; test: MTT proliferation inhibition, A549; format: cell-based; settings: Homo sapiens, A549, read-out: Proliferation inhibition rate, A549 Non-small cell lung cancer
Text: as §1, §2

[4] = test system: NCI-H460 non-small cell lung cancer; test: MTT proliferation inhibition, NCI-H460; format: cell-based; settings: Homo sapiens, NCI-H460, read-out: Proliferation inhibition rate, NCI-H460 Non-small cell lung cancer
Text: as §1, §2

[5] = test system: MDA-MB-436 breast cancer cells; test: MTT proliferation inhibition, MDA-MB-436; format: cell-based; settings: Homo sapiens, MDA-MB-436, read-out: Proliferation inhibition rate, MDA-MB-436 Breast cancer
Text: as §1, §2

[6] = Caco-2 bidirectional transport, efflux ratio; settings: human, Caco-2
Description: as §3

A2780 ovarian cancer = test: MTT proliferation inhibition, A2780; format: cell-based; settings: Homo sapiens, A2780, read-out: Proliferation inhibition rate, A2780 Ovarian cancer
Text: as §1, §2

LN-18 = test: MTT proliferation inhibition, LN-18; format: cell-based; settings: Homo sapiens, LN-18, read-out: Proliferation inhibition rate, LN-18 Gastric canser
Text: as §1, §2

LNCaP prostate cancer = test: MTT proliferation inhibition, LNCaP; format: cell-based; settings: Homo sapiens, read-out: Proliferation inhibition rate, LNCaP Prostate cancer
Text: as §1, §2

Hela cervical cancer = test: MTT proliferation inhibition, HeLa; format: cell-based; settings: Homo sapiens, read-out: Proliferation inhibition rate, HeLa Uterin cancer
Text: as §1, §2

[7] = test system: breast cancer cell line MCF-7; test: IC50 on breast cancer cell line MCF-7; format: cell-based; settings: Homo sapiens, MCF7, 72 h, read-out: MCF-7 (IC50, nM)
Description: From the activity evaluation data of the above-mentioned preliminary screen, it can be seen that the series of taxanes derivatives synthesized in the present invention have activity. Afterward, the compounds are investigated to examine their IC50 values on breast cancer cell line MCF-7. […] Experiments for each compound were independently repeated for three times and multiple holes were used in each experiment. The exposure time of drugs was 72 hours.

HCT 116 colon cancer = test: MTT proliferation inhibition, HCT 116; format: cell-based; settings: Homo sapiens, HCT-116, read-out: Proliferation inhibition rate, HCT 116 Colon cancer
Text: as §1, §2

Du145 prostate cancer = test: MTT proliferation inhibition, Du145; format: cell-based; settings: Homo sapiens, DU-145, read-out: Proliferation inhibition rate, DU145 Prostate cancer
Text: as §1, §2

K562 leukemia = test: MTT proliferation inhibition, K562; format: cell-based; settings: Homo sapiens, K562, read-out: Proliferation inhibition rate, K562 Leukemia
Text: as §1, §2

[8] = Mean, read-out: Recovery rate in mass, Mean
[9] = Sample-01, read-out: Papp A-B, Sample-01
[10] = Sample-01, read-out: Recovery rate in mass, Sample-01
[11] = Sample-02, read-out: Papp A-B, Sample-02
[12] = Sample-02, read-out: Recovery rate in mass, Sample-02

| Structure (SMILES) | inhibition at 1 µM (B16 melanoma) [%] | recovery [1, 8] [%] | Papp A→B [1, 9] [×10⁻⁶ cm/s] | recovery [1, 10] [%] | Papp A→B [1, 11] [×10⁻⁶ cm/s] | recovery [1, 12] [%] | inhibition at 1 µM [2] [%] | inhibition at 1 µM (HT-29 colon cancer) [%] | inhibition at 1 µM (HL-60 leukemia) [%] | inhibition at 1 µM (A375 melanoma) [%] | inhibition at 1 µM (BGC-823 gastric cancer) [%] | inhibition at 1 µM [3] [%] | inhibition at 1 µM [4] [%] | inhibition at 1 µM [5] [%] | Papp A→B [6] [×10⁻⁶ cm/s] | Papp B→A [6] [×10⁻⁶ cm/s] | efflux ratio [6] | inhibition at 1 µM (A2780 ovarian cancer) [%] | inhibition at 1 µM (LN-18) [%] | inhibition at 1 µM (LNCaP prostate cancer) [%] | also measured |
| --- | --- | --- | --- | --- | --- | --- | --- | --- | --- | --- | --- | --- | --- | --- | --- | --- | --- | --- | --- | --- | --- |
| CO[C@H]1C[C@H]2OC[C@@]2(OC(C)=O)[C@H]2[C@H](OC(=O)c3ccccc3)[C@]34OC(=O)O[C@H]3[C@H](OC(=O)[C@H](O)[C@@H](NC(=O)OC(C)(C)C)c3ccccn3)C(C)=C([C@@H](OC(=O)N(C)C)C(=O)[C@]12C)C4(C)C [PCMI-09] | 81.7 | 76.5 | 5.78 | 70.4 | 3.59 | 82.6 | 89.8 | 87.8 | 98.5 | 96.9 | 94.9 | 75.8 | 85.8 | 81.3 | 3.56 | 29 | 8.14 | 95.6 | 95 | 86.2 | inhibition at 1 µM (Hela cervical cancer): 101%; IC50 [7]: 14.31 ± 0.12 nM; inhibition at 1 µM (HCT 116 colon cancer): 65.5%; inhibition at 1 µM (Du145 prostate cancer): 90.3%; inhibition at 1 µM (K562 leukemia): 92.6% |
| COC(=O)O[C@H]1C[C@H]2OC[C@@]2(OC(C)=O)[C@H]2[C@H](OC(=O)c3ccccc3)[C@]34OC(=O)O[C@H]3[C@H](OC(=O)[C@H](O)[C@@H](NC(=O)OC(C)(C)C)c3ccccc3)C(C)=C([C@@H](OC)C(=O)[C@]12C)C4(C)C [PCMI-17] | 82.3 | 88.7 | 4.7 | 104 | 3.16 | 73.9 | 93.1 | 88.5 | 97.3 | 94.9 | 95.1 | 80.3 | 89.2 | 85.1 | 2.4 | 5.74 | 2.39 | 96.6 | 95.9 | 86.7 | inhibition at 1 µM (Hela cervical cancer): 101%; IC50 [7]: 3.84 ± 0.08 nM; inhibition at 1 µM (HCT 116 colon cancer): 69.6%; inhibition at 1 µM (Du145 prostate cancer): 90.7%; inhibition at 1 µM (K562 leukemia): 96.5% |
| COC(=O)O[C@H]1C[C@H]2OC[C@@]2(OC(C)=O)[C@H]2[C@H](OC(=O)c3ccccc3)[C@]34OC(=O)O[C@H]3[C@H](OC(=O)[C@H](O)[C@@H](NC(=O)N(C)C)c3ccccc3)C(C)=C([C@@H](OC)C(=O)[C@]12C)C4(C)C [PCMI-19] | 83.7 | 74.5 | 3.78 | 78.2 | 4.05 | 70.7 | 89.7 | 87.2 | 96.9 | 95.2 | 93.3 | 80.2 | 87.3 | 83.6 | 2.79 | 21.3 | 7.65 | 94.2 | 93.9 | 87.2 | Papp A→B ([1]; Mean, read-out: Papp A-B, Mean): 3.92 ×10⁻⁶ cm/s; inhibition at 1 µM (Hela cervical cancer): 99.6%; IC50 [7]: 6.58 ± 0.02 nM; inhibition at 1 µM (HCT 116 colon cancer): 67.3%; inhibition at 1 µM (Du145 prostate cancer): 90%; inhibition at 1 µM (K562 leukemia): 92.7% |

Reference: patent US9890175B2, “Taxane compound, and preparation method and use thereof” (JIANGSU TASLY DIYI PHARMACEUTICAL CO., LTD., priority 2013, dated 2018)
